Laboratory results as given in patent US5500217A, “Personal care formulations” (priority 1991, dated 1996).
Structures can show the parent of a compound that is named as a salt.

Columns and labels:
Pseudomonas aeruginosa [1] = assay: Challenge test in shampoo, number of surviving (viable) bacteria; assay type: cell-based, Pseudomonas aeruginosa (ATCC 19429)
Protocol: (§1) Further aspects of the present invention are described in the following illustrative examples. Unless otherwise stated all refer to parts by weight. Also, personal care formulations in accordance with the present invention were subjected to evaluation of the antimicrobial properties of the composition. The anti-microbial evaluation was effected, under aseptic conditions throughout, in the following manner.
(§2) In the anti-microbial evaluation, the formulations were tested for anti-microbial activity against bacteria and/or fungi. The bacteria used were either Pseudomonas aeruginosa or Staphylococcusaureus. The fungus used was Candida albicans.
Aliquots (4 parts) of the above shampoo were then prepared with concentrations of the biocides indicated in Table 3 at 500 and 125 ppm of active ingredient.
The above samples were then challenged with a 0.2 parts by volume inoculum of a 24 hour culture of Pseudomonas aeruginosa (ATCC 19429) containing approximately 1×10^8 colony forming units (cfu's) per milliliter. The samples were then incubated in the dark at 25° C., 1 milliliter samples taken after 24 hours, 48 hours and 7 days and the number of surviving bacteria determined.
The procedure of Examples 4-14 were repeated using the 1:1 silver complex of N-methyl-N-hydroxythiobenzamide at four different concentrations.

Candida albicans = assay: Anti-microbial challenge test in oil in water emulsion (base cream), Candida albicans; assay type: cell-based, Candida albicans (ATCC 10231); conditions: viable count < 10^2 cells cm^-3; for MLC, CA, 7d: 7 days
Protocol: as §1, §2
(§3) To aliquots (20 parts) of the emulsion were added various anti-microbial agents at concentrations of 500, 125, 31.25 and 7.8 ppm of active ingredients.
(§4) One sample of each mixture was inoculated with 0.2 parts by volume of a 24 hour culture of Staphylococcus aureus (ATCC 6538) containing 10^8 cells cm^-3. Duplicate samples of each mixture were inoculated with 0.2 parts by volume of a 48 hour culture of Candida albicans (ATCC 10231) containing 10^8 cells cm^-3.
(§5) The samples were then incubated and samples removed after 24 hours, 48 hours and 7 days as described in Examples 1 and 2 with the exception that the samples were not subjected to a further challenge after seven days.

Staphylococcus aureus = assay: Anti-microbial challenge test in oil in water emulsion (base cream), Staphylococcus aureus; assay type: cell-based, Staphylococcus aureus (ATCC 6538); conditions: viable count < 10^2 cells cm^-3; for MLC, SA, 7d: 7 days
Protocol: as §1, §2, §3, §4, §5

Pseudomonas aeruginosa [2] = assay: Anti-microbial challenge test in protein-containing shampoo (MLC, two challenges); assay type: cell-based, Pseudomonas aeruginosa (ATCC 19429); conditions: viable count < 10^2 cells cm^-3; for MLC, Challenge 1, 48h / MLC, Challenge 1, 7d: first challenge; for MLC, Challenge 1, 7d / MLC, Challenge 2, 7d: 7 days
Protocol: as §1, §2
To aliquots (20 parts) of the shampoo formulation prepared as described were added various anti-microbial agents at concentrations of 125, 62.5, 31.25, 7.8 and 1.56 ppm of active ingredient, not all of the anti-microbial agents being used at all of these levels. The anti-microbial agents, and the levels used are as set out in Table One.
One sample of a mixture of the shampoo formulation and the anti-microbial agent was stored for one month (4 weeks) at 40° C. and a duplicate sample of the mixture was stored for one month at ambient temperature (about 20° C.).
The variants thus obtained were then challenged with a 0.2 parts by volume inoculum of a 24 hour culture of Pseudomonas aeruginosa (ATCC 19429) containing approximately 1×10^8 colony forming units (cfu's) per cm^3. The variants were than incubated in the dark at 25° C., and samples (one cm^3) were taken after 24 hours, 48 hours and 7 days. The number of surviving bacteria was determined by the decimal dilution method and the viable cells enumerated by incubation of the survivor detection plates at 30° C. for three days.
The results are shown in Table One in which the concentration of anti-microbial agent is the minimum required to reduce the count of viable cells to less than 10^2 cells cm^-3.
After removing the seven day sample, the samples of the shampoo formulation were challenged with a further 0.2 parts of a similar Pseudomonas aeruginosa culture and incubation at 25° C. was continued. Further one cm^3 samples were removed after 24 hours, 48 hours and 7 days and the number of surviving bacteria was determined in the same manner.

[3] = (S): shampoo stored one month at 40° C.
[4] = (S): shampoo stored one month at 40° C., second challenge
[5] = shampoo stored one month at ambient temperature
[6] = shampoo stored one month at ambient temperature, second challenge

Row | Structure (SMILES) | Viable bacteria after 24 hr (Pseudomonas aeruginosa [1]; Table 3, 125 ppm) | Viable bacteria after 48 hr (Pseudomonas aeruginosa [1]; Table 3, 125 ppm) | Viable bacteria after 7 days (Pseudomonas aeruginosa [1]; Table 3, 125 ppm) | Viable bacteria after 24 hr (Pseudomonas aeruginosa [1]; Table 3, 500 ppm) | Viable bacteria after 48 hr (Pseudomonas aeruginosa [1]; Table 3, 500 ppm) | Viable bacteria after 7 days (Pseudomonas aeruginosa [1]; Table 3, 500 ppm) | further results
1 | Cc1csc(=S)n1O [Example 4, 3hydroxy-4-methylthiazol-2(3H)-thione] | 1.7 E4 | > 3.0 E4 | > 3.0 E4 | 1.2 E4 | > 3.0 E4 | > 3.0 E4 | 
2 | Cc1csc(=S)n1[O-].Cc1csc(=S)n1[O-].Cc1csc(=S)n1[O-].[Y+3] [Example 6] | 4.5 E4 | > 1.0 E4 | < 3.0 E4 | 1.4 E4 | > 3.0 E4 | < 3.0 E4 | 
3 | Cc1csc(=S)n1[O-].Cc1csc(=S)n1[O-].[Mn+2] [Example 7] | 2.4 E4 | > 3.0 E4 | > 3.0 E4 | 3.5 E4 | > 3.0 E4 | > 3.0 E4 | 
4 | Cc1csc(=S)n1[O-].Cc1csc(=S)n1[O-].Cc1csc(=S)n1[O-].[Co+3] [Example 8] | 2.1 E3 | < 10 | < 10 | 1.2 E3 | < 10 | < 10 | 
5 | Cc1csc(=S)n1[O-].Cc1csc(=S)n1[O-].Cc1csc(=S)n1[O-].[Sc+3] [Example 9] | 2.6 E3 | 8.0 | < 10 | 2.0 E3 | 1.7 E2 | < 10 | 
6 | Cc1csc(=S)n1[O-].Cc1csc(=S)n1[O-].Cc1csc(=S)n1[O-].[In+3] [Example 11] | 9.1 E2 | < 10 | < 10 | < 10 | < 10 | < 10 | 
7 | Cc1csc(=S)n1[O-].Cc1csc(=S)n1[O-].[O]=[V+2] [Example 12] | 1.5 E4 | > 3.0 E4 | 8.3 E5 | 1.3 E3 | < 10 | < 10 | 
8 | Cc1csc(=S)n1[O-].Cc1csc(=S)n1[O-].[Co+2] [Example 13] | 2.1 E3 | < 10 | < 10 | 5.2 E2 | < 10 | < 10 | 
9 | Cc1csc(=S)n1[O-].Cc1csc(=S)n1[O-].[Zn+2] [Example 14] | 3.3 E3 | < 10 | < 10 | 4.4 E3 | < 10 | < 10 | 
10 | CN(O)C(=S)c1ccccc1.[Ag] [Example 15, 1:1 silver complex of N-methyl-N-hydroxythiobenzamide] |  |  |  |  |  |  | Viable bacteria after 24 hrs (Pseudomonas aeruginosa [1]; Table 4, 7.13 ppm): < 10; Viable bacteria after 48 hrs (Pseudomonas aeruginosa [1]; Table 4, 7.13 ppm): < 10; Viable bacteria after 7 days (Pseudomonas aeruginosa [1]; Table 4, 7.13 ppm): < 10; Viable bacteria after 24 hrs (Pseudomonas aeruginosa [1]; Table 4, 31.25 ppm): < 10; Viable bacteria after 48 hrs (Pseudomonas aeruginosa [1]; Table 4, 31.25 ppm): < 10; Viable bacteria after 7 days (Pseudomonas aeruginosa [1]; Table 4, 31.25 ppm): < 10; Viable bacteria after 24 hrs (Pseudomonas aeruginosa [1]; Table 4, 125 ppm): < 10; Viable bacteria after 48 hrs (Pseudomonas aeruginosa [1]; Table 4, 125 ppm): < 10; Viable bacteria after 7 days (Pseudomonas aeruginosa [1]; Table 4, 125 ppm): < 10; Viable bacteria after 24 hrs (Pseudomonas aeruginosa [1]; Table 4, 500 ppm): < 10; Viable bacteria after 48 hrs (Pseudomonas aeruginosa [1]; Table 4, 500 ppm): < 10; Viable bacteria after 7 days (Pseudomonas aeruginosa [1]; Table 4, 500 ppm): < 10
11 | On1ccccc1=S [SP, sodium salt of 1hydroxy-2-pyridinethione] |  |  |  |  |  |  | MLC, CA, 24h (Candida albicans): 500 ppm w/v; MLC, CA, 48h (Candida albicans): 500 ppm w/v; MLC, CA, 7d (Candida albicans): 31.25 ppm w/v; MLC, SA, 24h (Staphylococcus aureus): > 500 ppm w/v; MLC, SA, 48h (Staphylococcus aureus): 500 ppm w/v; MLC, SA, 7d (Staphylococcus aureus): 125 ppm w/v
12 | [O-]n1ccccc1=S.[O-]n1ccccc1=S.[Zn+2] [ZP, 1:2 complex of zinc with 1hydroxy-2-pyridinethione] |  |  |  |  |  |  | MLC, CA, 24h (Candida albicans): 500 ppm w/v; MLC, CA, 48h (Candida albicans): 500 ppm w/v; MLC, CA, 7d (Candida albicans): 31.25 ppm w/v; MLC, SA, 24h (Staphylococcus aureus): > 500 ppm w/v; MLC, SA, 48h (Staphylococcus aureus): > 500 ppm w/v; MLC, SA, 7d (Staphylococcus aureus): 500 ppm w/v
13 | Cc1csc(=S)n1O.Cc1csc(=S)n1O.[Zn] [ZTA, 2:1 complex of 3hydroxy-4-methyl-thiazol-2(3H) thione and zinc] | 6.2 E3 | < 10 | < 10 | 7.6 E3 | < 10 | < 10 | MLC, Challenge 1, 48h (Pseudomonas aeruginosa [2]; [3]): 62.5 ppm w/v; MLC, Challenge 1, 7d (Pseudomonas aeruginosa [2]; [3]): 62.5 ppm w/v; MLC, Challenge 2, 48h (Pseudomonas aeruginosa [2]; [4]): 62.5 ppm w/v; MLC, Challenge 2, 7d (Pseudomonas aeruginosa [2]; [4]): 62.5 ppm w/v; MLC, Challenge 1, 48h (Pseudomonas aeruginosa [2]; [5]): 7.8 ppm w/v; MLC, Challenge 1, 7d (Pseudomonas aeruginosa [2]; [5]): 7.8 ppm w/v; MLC, Challenge 2, 24h (Pseudomonas aeruginosa [2]; shampoo stored one month at ambient temperature, second challenge, 24 h): 31.25 ppm w/v; MLC, Challenge 2, 48h (Pseudomonas aeruginosa [2]; [6]): 31.25 ppm w/v; MLC, Challenge 2, 7d (Pseudomonas aeruginosa [2]; [6]): 31.25 ppm w/v; MLC, CA, 24h (Candida albicans): 31.25 ppm w/v; MLC, CA, 48h (Candida albicans): 31.25 ppm w/v; MLC, CA, 7d (Candida albicans): 31.25 ppm w/v; MLC, SA, 24h (Staphylococcus aureus): 500 ppm w/v; MLC, SA, 48h (Staphylococcus aureus): 31.25 ppm w/v; MLC, SA, 7d (Staphylococcus aureus): 7.8 ppm w/v
